Measurements from ChEMBL document CHEMBL4382234, “Fluoroquinolone-isatin hybrids and their biological activities” (Eur J Med Chem, 2019).
≈ marks a conversion by molar mass, not a printed value.

Legend:
Assay type in all cases: functional
[1] = tested on: Mycolicibacterium smegmatis; experiment: Antimycobacterial activity against Mycobacterium smegmatis CMCC 93202 after 72 hrs by double dilution method; settings: CMCC 93202, 72 h
[2] = tested on: Mycobacterium tuberculosis; experiment: Antimycobacterial activity against Mycobacterium tuberculosis H37Rv ATCC 27294 by rapid direct susceptibility test
[3] = tested on: Mycobacterium tuberculosis; experiment: Antimycobacterial activity against Mycobacterium tuberculosis H37Rv after 3 to 7 days by rapid direct susceptibility test
[4] = tested on: Mycobacterium tuberculosis; experiment: Antitubercular activity against Mycobacterium tuberculosis H37Rv by microplate alamar blue assay

SMILES | MIC [1] | MIC [2] | MIC [3] | MIC [4]
COc1c(N2C[C@@H]3CCCN(CN4C(=O)C(=O)c5ccccc54)[C@@H]3C2)c(F)cc2c(=O)c(C(=O)O)cn(C3CC3)c12 | 0.39 to 16 µg/mL (≈ 0.696 to 28.5 µM) | 0.39 to 16 µg/mL (≈ 0.696 to 28.5 µM) | – | –
COc1c(N2C[C@@H]3CCCN(CN4C(=O)/C(=N\NC(N)=S)c5ccccc54)[C@@H]3C2)c(F)cc2c(=O)c(C(=O)O)cn(C3CC3)c12 | 0.39 to 16 µg/mL (≈ 0.615 to 25.2 µM) | 0.39 to 16 µg/mL (≈ 0.615 to 25.2 µM) | – | –
NC(=O)N/N=C1/C(=O)N(CCCN2CCN(c3cc4c(cc3F)c(=O)c(C(=O)O)cn4C3CC3)CC2)c2ccccc21 | – | – | 0.1 to 64 µg/mL (≈ 0.174 to 111 µM) | –
COc1c(N2C[C@@H]3CCCN(CN4C(=O)/C(=N\NC(N)=O)c5ccccc54)[C@@H]3C2)c(F)cc2c(=O)c(C(=O)O)cn(C3CC3)c12 | 0.39 to 16 µg/mL (≈ 0.631 to 25.9 µM) | 0.39 to 16 µg/mL (≈ 0.631 to 25.9 µM) | – | –
COc1c(N2C[C@@H]3CCCN(Cc4cn(CCN5C(=O)/C(=N/NC(N)=O)c6ccccc65)nn4)[C@@H]3C2)c(F)cc2c(=O)c(C(=O)O)cn(C3CC3)c12 | – | – | 0.1 to 0.78 µg/mL (≈ 0.14 to 1.09 µM) | –
CCn1cc(C(=O)O)c(=O)c2cc(F)c(N3CCN(CN4C(=O)/C(=N\c5ncc(Cc6cc(OC)c(OC)c(OC)c6)c(N)n5)c5cc(Cl)ccc54)C(C)C3)c(F)c21 (configuration not stated) | – | – | – | 0.78 to 3.13 µg/mL (≈ 0.954 to 3.83 µM)
COc1cc(Cc2cnc(/N=C3\C(=O)N(CN4CCN(c5c(F)cc6c(=O)c(C(=O)O)cn(C7CC7)c6c5OC)CC4C)c4ccc(Cl)cc43)nc2N)cc(OC)c1OC (configuration not stated) | – | – | – | 0.78 to 3.13 µg/mL (≈ 0.927 to 3.72 µM)
COc1c(N2C[C@@H]3CCCN(Cc4cn(CCN5C(=O)/C(=N/NC(N)=O)c6cc(Br)ccc65)nn4)[C@@H]3C2)c(F)cc2c(=O)c(C(=O)O)cn(C3CC3)c12 | – | – | 0.1 to 0.78 µg/mL (≈ 0.126 to 0.985 µM) | –
CCO/N=C1\C(=O)N(CCN2CCC[C@H]3CN(c4c(F)cc5c(=O)c(C(=O)O)cn(C6CC6)c5c4OC)C[C@H]32)c2ccccc21 | 0.39 to 16 µg/mL (≈ 0.631 to 25.9 µM) | 0.39 to 16 µg/mL (≈ 0.631 to 25.9 µM) | – | –
CC[C@@H](CO)NCCN[C@@H](CC)CO [ETHAMBUTOL] | – | – | – | 1.88 µg/mL (≈ 9.2 µM)
COc1c(N2C[C@@H]3CCCN(CCN4C(=O)/C(=N\NC(N)=O)c5ccccc54)[C@@H]3C2)c(F)cc2c(=O)c(C(=O)O)cn(C3CC3)c12 | 0.39 to 16 µg/mL (≈ 0.617 to 25.3 µM) | 0.39 to 16 µg/mL (≈ 0.617 to 25.3 µM) | – | –
COc1c(N2C[C@@H]3CCCN(CCN4C(=O)/C(=N\O)c5ccccc54)[C@@H]3C2)c(F)cc2c(=O)c(C(=O)O)cn(C3CC3)c12 | 0.39 to 16 µg/mL (≈ 0.661 to 27.1 µM) | 0.39 to 16 µg/mL (≈ 0.661 to 27.1 µM) | – | –
COc1cc(Cc2cnc(/N=C3\C(=O)N(CN4CCN(c5cc6c(cc5F)c(=O)c(C(=O)O)cn6C5CC5)CC4)c4ccc(Cl)cc43)nc2N)cc(OC)c1OC | – | – | – | 0.78 to 3.13 µg/mL (≈ 0.978 to 3.93 µM)
NNC(=O)c1ccncc1 [ISONIAZID] | – | – | > 128 µg/mL | 0.05 µg/mL (≈ 0.365 µM)
Cc1ccc2c(c1)/C(=N\NC(N)=S)C(=O)N2CCCN1CCN(c2cc3c(cc2F)c(=O)c(C(=O)O)cn3C2CC2)CC1 | – | – | 0.1 to 64 µg/mL (≈ 0.165 to 106 µM) | –
COc1c(N2C[C@@H]3CCCN[C@@H]3C2)c(F)cc2c(=O)c(C(=O)O)cn(C3CC3)c12 [MOXIFLOXACIN] | 0.1 to 1 µg/mL (≈ 0.249 to 2.49 µM) | 0.1 to 1 µg/mL (≈ 0.249 to 2.49 µM) | 0.1 µg/mL (≈ 0.249 µM) | –
COc1c(N2C[C@@H]3CCCN(CN4C(=O)/C(=N\O)c5ccccc54)[C@@H]3C2)c(F)cc2c(=O)c(C(=O)O)cn(C3CC3)c12 | 0.39 to 16 µg/mL (≈ 0.678 to 27.8 µM) | 0.39 to 16 µg/mL (≈ 0.678 to 27.8 µM) | – | –
NC(=S)N/N=C1/C(=O)N(CCCN2CCN(c3cc4c(cc3F)c(=O)c(C(=O)O)cn4C3CC3)CC2)c2ccccc21 | – | – | 0.1 to 64 µg/mL (≈ 0.169 to 108 µM) | –
CO/N=C1\C(=O)N(CCN2CCC[C@H]3CN(c4c(F)cc5c(=O)c(C(=O)O)cn(C6CC6)c5c4OC)C[C@H]32)c2cc(F)ccc21 | 0.39 to 16 µg/mL (≈ 0.627 to 25.7 µM) | 0.39 to 16 µg/mL (≈ 0.627 to 25.7 µM) | – | –
COc1c(N2C[C@@H]3CCCN(CN4C(=O)/C(=N\NC(N)=S)c5cc(F)ccc54)[C@@H]3C2)c(F)cc2c(=O)c(C(=O)O)cn(C3CC3)c12 | 0.39 to 16 µg/mL (≈ 0.598 to 24.6 µM) | 0.39 to 16 µg/mL (≈ 0.598 to 24.6 µM) | – | –
COc1cc(Cc2cnc(/N=C3\C(=O)N(CN4CCN(c5cc6c(cc5F)c(=O)c(C(=O)O)cn6C5CC5)CC4)c4ccc(C)cc43)nc2N)cc(OC)c1OC | – | – | – | 0.78 to 3.13 µg/mL (≈ 1 to 4.03 µM)
COc1c(N2C[C@@H]3CCCN(CN4C(=O)/C(=N\O)c5cc(F)ccc54)[C@@H]3C2)c(F)cc2c(=O)c(C(=O)O)cn(C3CC3)c12 | 0.39 to 16 µg/mL (≈ 0.657 to 27 µM) | 0.39 to 16 µg/mL (≈ 0.657 to 27 µM) | – | –
COc1c(N2CCNC(C)C2)c(F)cc2c(=O)c(C(=O)O)cn(C3CC3)c12 (configuration not stated) [GATIFLOXACIN] | – | – | 0.5 µg/mL (≈ 1.33 µM) | –
COc1c(N2C[C@@H]3CCCN(CN4C(=O)/C(=N\NC(N)=O)c5cc(F)ccc54)[C@@H]3C2)c(F)cc2c(=O)c(C(=O)O)cn(C3CC3)c12 | 0.39 to 16 µg/mL (≈ 0.614 to 25.2 µM) | 0.39 to 16 µg/mL (≈ 0.614 to 25.2 µM) | – | –
Cc1ccc2c(c1)/C(=N\NC(N)=O)C(=O)N2CCCN1CCN(c2cc3c(cc2F)c(=O)c(C(=O)O)cn3C2CC2)CC1 | – | – | 0.1 to 64 µg/mL (≈ 0.17 to 109 µM) | –
CCn1cc(C(=O)O)c(=O)c2cc(F)c(N3CCN(CN4C(=O)/C(=N\c5ncc(Cc6cc(OC)c(OC)c(OC)c6)c(N)n5)c5cc(F)ccc54)C(C)C3)c(F)c21 (configuration not stated) | – | – | – | 0.78 to 3.13 µg/mL (≈ 0.974 to 3.91 µM)
CO/N=C1\C(=O)N(CN2CCC[C@H]3CN(c4c(F)cc5c(=O)c(C(=O)O)cn(C6CC6)c5c4OC)C[C@H]32)c2ccc(F)cc21 | 0.39 to 16 µg/mL (≈ 0.642 to 26.3 µM) | 0.39 to 16 µg/mL (≈ 0.642 to 26.3 µM) | – | –
